The record followed here is PMC3997621 (The Journal of comparative neurology, 2014).

In this assay the target is T1, InvD1L (invertebrate specific D1-like dopamine receptor) (Ixodes scapularis, UniProt A0ACM8DGL0).
T1 sequence (A0ACM8DGL0 1-457): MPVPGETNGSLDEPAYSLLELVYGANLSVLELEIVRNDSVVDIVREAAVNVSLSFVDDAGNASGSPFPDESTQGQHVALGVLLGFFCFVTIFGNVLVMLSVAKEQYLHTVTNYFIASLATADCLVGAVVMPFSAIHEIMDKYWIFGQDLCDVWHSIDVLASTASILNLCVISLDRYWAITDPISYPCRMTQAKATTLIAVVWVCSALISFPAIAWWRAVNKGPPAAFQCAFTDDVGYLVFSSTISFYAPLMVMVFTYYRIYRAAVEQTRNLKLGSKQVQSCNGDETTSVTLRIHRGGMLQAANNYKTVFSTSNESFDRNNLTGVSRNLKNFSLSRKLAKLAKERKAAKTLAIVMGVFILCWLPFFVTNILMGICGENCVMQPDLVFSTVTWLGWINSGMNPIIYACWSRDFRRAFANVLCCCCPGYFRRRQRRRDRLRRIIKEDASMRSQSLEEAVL
In words: cell-based.

For orientation: EC50 means the concentration that produces a half-maximal response. Lower therefore signals an effect from little substance. Consider `NCCc1ccc(O)c(O)c1` [DA, dopamine], for which the midpoint of the response, the EC50, lay at 1.34 µM. In other words, the single-digit micromolar range.
